{"source": "patent US20240325484A1", "about": "“COMPOSITION COMPRISING HORSE CHESTNUT EXTRACT” (ANGIOLAB, INC., priority 2021, published 2024)", "system": "RAW264.7 cells", "assay": "Cytotoxicity assay (XTT, cell viability)", "conditions": "4 days, at concentrations of 2.5, 5, 10, and 25 μM (FIG. 7 to FIG. 10)", "experimental": "The cells were treated with 50 μl of XTT reagent per well, then reacted for four hours. An absorbance change thereof was measured at 490 nm and 650 nm (reference wavelength) by ELISA (enzyme linked immunosorbent assay) reader (Molecular Devices, USA), and a cell viability was expressed as a percentage."}
{"molecule": "C[C@@H]1O[C@@H](Oc2c(-c3ccc(O)c(O)c3)oc3cc(O)cc(O)c3c2=O)[C@H](O)[C@H](O)[C@H]1O", "note": "[quercitrin, Quercitrin]", "values": [{"measurement": "cytotoxicity", "value": "no cytotoxicity"}]}
